Laboratory results reported in ChEMBL document CHEMBL1201862, “PubChem BioAssay data set” (2004).
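Exposure lasted 48 hours, with cells grown in 96-well plates and compounds tested at five concentrations. Here, GI50 denotes the concentration required for 50% inhibition of growth.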 Active and inactive are the calls of the source. No stated cut-off is given here; in the data, active = GI50 up to about 1.1 µM and inactive = higher.

What was measured:
Test in all cases: NCI-60 cell line screen, 48 h
RXF 393 = tested on: RXF 393
CAKI-1 = tested on: CAKI-1
LOX IMVI = tested on: LOX IMVI
OVCAR-3 = tested on: OVCAR-3
SF-539 = tested on: SF-539
M14 = tested on: M14
OVCAR-5 = tested on: OVCAR-5
MOLT-4 = tested on: MOLT-4
ACHN = tested on: ACHN
NCI-H226 = tested on: NCI-H226
SN12C = tested on: SN12C
RPMI-8226 = tested on: RPMI-8226
IGROV-1 = tested on: IGROV-1
NCI-H522 = tested on: NCI-H522
HOP-92 = tested on: HOP-92
NCI-H460 = tested on: NCI-H460
SNB-78 = tested on: SNB-78
K562 = tested on: K562
DLD-1 = tested on: DLD-1
UACC-257 = tested on: UACC-257
M19-MEL = tested on: M19-MEL
U-251 = tested on: U-251
OVCAR-8 = tested on: OVCAR-8
SNB-75 = tested on: SNB-75
CCRF-CEM = tested on: CCRF-CEM
HL-60 = tested on: HL-60
HCT-116 = tested on: HCT-116
SNB-19 = tested on: SNB-19
SF-295 = tested on: SF-295
KM-20L2 = tested on: KM-20L2
DMS-273 = tested on: DMS-273
COLO 205 = tested on: COLO 205
SK-MEL-2 = tested on: SK-MEL-2
EKVX = tested on: EKVX
SF-268 = tested on: SF-268
HCT-15 = tested on: HCT-15
Malme-3M = tested on: Malme-3M
HCC 2998 = tested on: HCC 2998
TK-10 = tested on: TK-10
UO-31 = tested on: UO-31
A549 = tested on: A549
OVCAR-4 = tested on: OVCAR-4
KM12 = tested on: KM12
HT-29 = tested on: HT-29
SK-MEL-28 = tested on: SK-MEL-28
SW-620 = tested on: SW-620
SK-MEL-5 = tested on: SK-MEL-5
NCI-H23 = tested on: NCI-H23
XF498 = tested on: XF498
A498 = tested on: A498
786-0 = tested on: 786-0
RXF 631 = tested on: RXF 631
LXFL 529 = tested on: LXFL 529
UACC-62 = tested on: UACC-62
HOP-62 = tested on: HOP-62
DMS-114 = tested on: DMS-114
SK-OV-3 = tested on: SK-OV-3

## CC1(c2cccc3ccccc23)OC(=O)c2ccccc21 (configuration not stated)
RXF 393
  GI50: 18.5 µM (inactive)
CAKI-1
  GI50: 15 µM (inactive)
LOX IMVI
  GI50: 19.3 µM (inactive)
OVCAR-3
  GI50: 23.5 µM (inactive)
SF-539
  GI50: 14.6 µM (inactive)
M14
  GI50: 18.2 µM (inactive)
OVCAR-5
  GI50: 57.1 µM (inactive)
MOLT-4
  GI50: 15.1 µM (inactive)
ACHN
  GI50: 20.3 µM (inactive)
NCI-H226
  GI50: 22.7 µM (inactive)
SN12C
  GI50: 22 µM (inactive)
RPMI-8226
  GI50: 19.6 µM (inactive)
IGROV-1
  GI50: 19.2 µM (inactive)
NCI-H522
  GI50: 25.2 µM (inactive)
HOP-92
  GI50: 13.5 µM (inactive)
NCI-H460
  GI50: 21.1 µM (inactive)
SNB-78
  GI50: 41.7 µM (inactive)
K562
  GI50: 12.8 µM (inactive)
DLD-1
  GI50: 22.5 µM (inactive)
UACC-257
  GI50: 22.2 µM (inactive)
M19-MEL
  GI50: 21.3 µM (inactive)
U-251
  GI50: 20 µM (inactive)
OVCAR-8
  GI50: 28.1 µM (inactive)
SNB-75
  GI50: 10 µM (inactive)
CCRF-CEM
  GI50: 14.3 µM (inactive)
HL-60
  GI50: 13.4 µM (inactive)
HCT-116
  GI50: 16.9 µM (inactive)
SNB-19
  GI50: 30.1 µM (inactive)
SF-295
  GI50: 17.9 µM (inactive)
KM-20L2
  GI50: 17.2 µM (inactive)
DMS-273
  GI50: 10.8 µM (inactive)
COLO 205
  GI50: 16.2 µM (inactive)
SK-MEL-2
  GI50: 21.3 µM (inactive)
EKVX
  GI50: 30.1 µM (inactive)
SF-268
  GI50: 25.5 µM (inactive)
HCT-15
  GI50: 18.6 µM
Malme-3M
  GI50: 20.7 µM (inactive)
HCC 2998
  GI50: 15.7 µM (inactive)
TK-10
  GI50: 70.6 µM (inactive)
UO-31
  GI50: 26 µM (inactive)
A549
  GI50: 16.7 µM (inactive)
OVCAR-4
  GI50: 27.7 µM (inactive)
KM12
  GI50: 25.1 µM (inactive)
HT-29
  GI50: 20.7 µM (inactive)
SK-MEL-28
  GI50: 27 µM (inactive)
SW-620
  GI50: 21 µM (inactive)
SK-MEL-5
  GI50: 13.3 µM (inactive)
NCI-H23
  GI50: 16 µM (inactive)
XF498
  GI50: 18.2 µM (inactive)
A498
  GI50: 21.5 µM (inactive)
786-0
  GI50: 26.2 µM (inactive)
RXF 631
  GI50: 20.2 µM (inactive)
LXFL 529
  GI50: 26.5 µM (inactive)
UACC-62
  GI50: 12 µM (inactive)
HOP-62
  GI50: 18.3 µM (inactive)
DMS-114
  GI50: 13.4 µM (inactive)
SK-OV-3
  GI50: 32.5 µM (inactive)
